The values below come from ChEMBL document CHEMBL3400083, “Effect of the tyrosinase inhibitor (S)-N-trans-feruloyloctopamine from garlic skin on tyrosinase gene expression and melanine accumulation in melanoma cells” (Bioorg Med Chem Lett, 2015).

The structures appear in SMILES notation. The source made the active and inactive calls. The rule behind the calls is not given here. Bounds are passed on as bounds.

Series [1] concerns the target T1, Tyrosinase (Homo sapiens, UniProt P14679).
T1 sequence (P14679 whole entry): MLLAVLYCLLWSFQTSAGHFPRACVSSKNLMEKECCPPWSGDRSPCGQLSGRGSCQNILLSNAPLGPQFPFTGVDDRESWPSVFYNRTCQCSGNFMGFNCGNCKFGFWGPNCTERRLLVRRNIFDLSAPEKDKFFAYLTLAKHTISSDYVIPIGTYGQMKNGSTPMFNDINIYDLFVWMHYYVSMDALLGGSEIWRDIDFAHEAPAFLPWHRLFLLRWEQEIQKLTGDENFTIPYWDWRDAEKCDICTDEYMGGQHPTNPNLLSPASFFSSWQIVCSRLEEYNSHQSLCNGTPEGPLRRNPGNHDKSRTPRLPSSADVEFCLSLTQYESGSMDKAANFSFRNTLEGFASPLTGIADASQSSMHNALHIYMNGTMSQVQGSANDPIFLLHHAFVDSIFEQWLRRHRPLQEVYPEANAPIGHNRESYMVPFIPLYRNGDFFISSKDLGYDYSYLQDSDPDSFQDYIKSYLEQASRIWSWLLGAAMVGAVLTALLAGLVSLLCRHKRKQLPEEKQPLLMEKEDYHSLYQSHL
Put plainly: Inhibition of tyrosinase (unknown origin).

Series [2] has as its target T2, Tyrosinase (Mus musculus) (UniProt P11344).
T2 sequence (whole entry): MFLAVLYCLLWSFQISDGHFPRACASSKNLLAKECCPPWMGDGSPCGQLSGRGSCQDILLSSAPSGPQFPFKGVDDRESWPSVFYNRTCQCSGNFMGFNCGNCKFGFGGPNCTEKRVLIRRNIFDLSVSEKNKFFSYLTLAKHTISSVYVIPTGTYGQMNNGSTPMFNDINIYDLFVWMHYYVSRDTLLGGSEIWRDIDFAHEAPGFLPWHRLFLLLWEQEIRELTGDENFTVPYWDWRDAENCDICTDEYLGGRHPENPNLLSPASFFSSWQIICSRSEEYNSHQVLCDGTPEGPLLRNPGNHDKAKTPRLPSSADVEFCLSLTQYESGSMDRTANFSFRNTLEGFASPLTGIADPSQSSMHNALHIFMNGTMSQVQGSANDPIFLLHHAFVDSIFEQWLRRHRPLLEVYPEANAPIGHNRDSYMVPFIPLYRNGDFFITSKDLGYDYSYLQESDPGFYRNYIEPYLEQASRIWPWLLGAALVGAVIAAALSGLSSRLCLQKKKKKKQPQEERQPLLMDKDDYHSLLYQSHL
As to conditions: B16-F10, 100 uM.
Description: Inhibition of tyrosinase in mouse B16F10 cells assessed as reduction in alpha-MSH-induced melanin content at 100 uM

A short description of series [3]: Cytotoxicity against mouse B16F10 cells assessed as cell viability at 1.5 uM after 72 hrs by MTT assay (reference value: 99.6 +/- 3.5%). As to conditions: read-out: Activity. Type of series: cell-based, B16-F10.
Series [4] can be described thus: Cytotoxicity against mouse B16F10 cells assessed as cell viability at 3 uM after 72 hrs by MTT assay (reference value: 99.6 +/- 3.5%). Type of series: cell-based, B16-F10. As to conditions: read-out: Activity. Background: Tetrazolium assays rely on reduction of a dye to a coloured formazan, in cell work by metabolically active cells.
The nature of series [5]: Cytotoxicity against mouse B16F10 cells assessed as cell viability at 6 uM after 72 hrs by MTT assay (reference value: 99.6 +/- 3.5%). The conditions noted are these: read-out: Activity. Type of series: cell-based, B16-F10.
Series [6] is described as follows: Cytotoxicity against mouse B16F10 cells assessed as cell viability at 12 uM after 72 hrs by MTT assay (reference value: 99.6 +/- 3.5%). Type of series: cell-based, B16-F10. As to conditions: read-out: Activity.
A short description of series [7]: Cytotoxicity against mouse B16F10 cells assessed as cell viability at 24 uM after 72 hrs by MTT assay (reference value: 99.6 +/- 3.5%). The class given is cell-based, B16-F10. As to conditions: read-out: Activity.
Series [8] is described as follows: Cytotoxicity against mouse B16F10 cells assessed as cell viability at 48 uM after 72 hrs by MTT assay (reference value: 99.6 +/- 3.5%). Type of series: cell-based, B16-F10. The conditions noted are these: read-out: Activity.
The nature of series [9]: Cytotoxicity against mouse B16F10 cells assessed as cell viability at 96 uM after 72 hrs by MTT assay (reference value: 99.6 +/- 3.5%). Type of series: cell-based, B16-F10. The conditions noted are these: read-out: Activity.
In series [10] the target is T2, Tyrosinase (Mus musculus). Put plainly: Inhibition of tyrosinase in mouse B16F10 cells assessed as reduction in alpha-MSH-induced melanin content at 48 uM (reference value: 98.5 +/- 4.7%). The class given is cell-based. The conditions noted are these: B16-F10.
In series [11] the target is T2, Tyrosinase (Mus musculus). Description: Inhibition of tyrosinase in mouse B16F10 cells assessed as reduction in alpha-MSH-induced melanin content at 96 uM (reference value: 98.5 +/- 4.7%). Type of series: cell-based. As to conditions: B16-F10.
The target in series [12] is T2, Tyrosinase (Mus musculus). Put plainly: (§1) Inhibition of tyrosinase in mouse B16F10 cells assessed as reduction in alpha-MSH-induced melanin content. As to conditions: B16-F10. Type of series: cell-based.
Series [13] deals with T3, Tyrosinase (Mus musculus, UniProt P11344).
T3 sequence (P11344 whole entry): T2 sequence (whole entry)
The series is described as §1. Type of series: cell-based, B16-F10.

Series [14] relates to B16-F10. Description: Inhibition of tyrosinase mRNA expression in alpha-MSH-stimulated mouse B16F10 cells at 48 to 96 uM incubated for 1 hr prior to alpha-MSH challenge measured after 24 hrs by RT-PCR analysis. The class given is functional, cell-based.
Series [15] in a line: Inhibition of tyrosinase protein expression in alpha-MSH-stimulated mouse B16F10 cells at 48 to 96 uM incubated for 1 hr prior to alpha-MSH challenge measured after 24 hrs by Western blotting analysis. The class given is functional, cell-based. The conditions noted are these: B16-F10.

By IC50 is commonly meant the concentration at which inhibition is half-maximal. For the molecule `CC(C)(C)c1cc(O)ccc1O` [E319], the IC50 in series [1] is 54.2 µM.
Usually inhibition stands for the drop in the measured response relative to a control, in per cent. With `OC[C@H]1O[C@@H](Oc2ccc(O)cc2)[C@H](O)[C@@H](O)[C@@H]1O`, the inhibition in series [2] was determined as 146%.
With `COc1cc(/C=C/C(=O)NC[C@@H](O)c2ccc(O)cc2)ccc1O`, in series [3], the viability at 72 h, 1.5 µM worked out at 102%. Moreover, the viability at 72 h, 3 µM in [4] came out at 105%. The viability at 72 h, 6 µM in series [5] turned out to be 97.8%. In addition, the viability at 72 h, 12 µM in series [6] turned out to be 99.4%. Moreover, the viability at 72 h, 24 µM in series [7] came to 98.3%. Besides, the viability at 72 h, 48 µM in series [8] stood at 97.2%. The viability at 72 h, 96 µM in [9] was 96%. Besides, the inhibition is 122% in [10], 106% in [11] and “Dose-dependent effect” in series [12]. In addition, in series [13], the IC50 is above 96 µM. In addition, the inhibition entry in series [14] and in series [15] was “Active” throughout.
